Test results as given in paper PMC6148246, “HS-1371, a novel kinase inhibitor of RIP3-mediated necroptosis” (Experimental & Molecular Medicine, 2018).

Assays:
HT-29 cells = assay: TSZ-induced necroptotic cell death in HT-29 cells (MTT assay); format: cell-based
Experimental: Cell viability was determined using tetrazolium dye colorimetric tests (the MTT assay) read at 570 nm. PI staining was quantified using propidium iodide (Cat. No. 51-66211E, BD Biosciences). Lactate dehydrogenase (LDH) leakage was quantified using the […] according to the manufacturer’s instructions. The LDH absorbance was read at 490 nm, and the mean ± STDEV of duplicates is presented.
HT-29 cells were pretreated with four tested inhibitors for 2 h and then treated with TSZ (6 h for immunoblotting, 24 h for cell death assay). Cell lysates were analyzed by immunoblotting, and cell viability was analyzed by MTT assay or phase-contrast microscopy. The results are presented as the means ± SEM. *P < 0.05, **P < 0.01, ***P < 0.001. b Protection of necroptosis by HS-1371 treatment is similar with dabrafenib, which abolished downstream events. HT-29 cells were pretreated with various necroptosis inhibitors and HS-1371 before TSZ treatment. Cell lysates were analyzed by immunoblotting, and cell viability was analyzed by MTT assay (left panel). Cells were stained with phospho-MLKL antibody and analyzed by confocal fluorescence microscopy (middle panel), and cell death was further analyzed by FACS analysis after PI staining (right panel). c HS-1371 protects cells from TNF-induced necroptosis in a dose-dependent manner. HT-29 cells were pretreated with indicated concentrations of HS-1371 and then treated with TSZ (6 h for immunoblotting, 24 h for cell death assay). Cell lysates were analyzed by immunoblotting, and cell viability was analyzed by MTT assay or phase-contrast microscopy. The results are presented as means ± SEM. *P < 0.05, **P < 0.01, ***P < 0.001 TEXT PRINTED IN THE PICTURE: (b) TSZ: 20.7 | (b) TSZ + Nec-1: 5.8 | (b) TSZ + DAB: 5.5 | (b) TSZ + 1371: 6.8 DOUBTS OF THE COPYIST ABOUT THIS PICTURE: Panel b, flow cytometry plots: the red gate numbers are printed without a measure or unit, so none is given / Panel b: the 'Untreated' control plot prints 7.7; left out because it is not a substance

RIP3 = RIP3 (Homo sapiens, UniProt Q9Y572); assay: TNF (TSZ)-induced RIP3 and MLKL phosphorylation in HT-29 cells (immunoblot); format: cell-based; design: RIP3-expressing HT-29 cells; endogenous in cells; host or cells: HT-29
RIP3, sequence (Q9Y572 whole entry): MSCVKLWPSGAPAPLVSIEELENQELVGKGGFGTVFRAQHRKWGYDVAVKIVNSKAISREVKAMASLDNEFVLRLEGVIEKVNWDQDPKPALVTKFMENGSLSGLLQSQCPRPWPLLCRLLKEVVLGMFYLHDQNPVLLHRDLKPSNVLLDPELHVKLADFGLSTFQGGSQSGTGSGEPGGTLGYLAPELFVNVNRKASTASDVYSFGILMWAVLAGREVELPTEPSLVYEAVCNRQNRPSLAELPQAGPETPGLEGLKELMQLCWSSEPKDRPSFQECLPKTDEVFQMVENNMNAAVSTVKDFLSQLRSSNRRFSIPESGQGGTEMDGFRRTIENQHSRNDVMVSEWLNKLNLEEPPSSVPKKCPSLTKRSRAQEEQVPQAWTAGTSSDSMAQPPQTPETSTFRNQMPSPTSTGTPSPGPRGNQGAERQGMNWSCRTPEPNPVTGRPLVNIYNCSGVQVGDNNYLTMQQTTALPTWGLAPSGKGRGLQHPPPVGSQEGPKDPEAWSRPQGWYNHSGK
Experimental: Cells were rinsed in cold phosphate-buffered saline (PBS) and lysed in M2 buffer containing 20 mM Tris at pH 7, 0.5% NP-40, 250 mM NaCl, 3 mM EDTA, 3 mM EGTA, 2 mM DTT, 0.5 mM PMSF, 20 mM β-glycerol phosphate, 1 mM sodium vanadate, and 1 μg/mL leupeptin. The cell extracts were subjected to western blot analysis. For immunoprecipitation, lysates were mixed and precipitated with antibody and protein A-agarose beads overnight or for 4 h at 4 °C. Bound proteins were removed by boiling in SDS and resolved by SDS-PAGE, and immunoblotting was visualized by enhanced chemiluminescence (ECL, Amersham).
Fig. 2 Novel inhibitors can block RIP3 S227 phosphorylation. a Western blotting showing various kinase inhibitor effects on RIP3 S227 auto-phosphorylation. HT-29 cells were treated with four tested kinase inhibitors (1308, 1336, 1338, and 1371, 10 μM) for 9 h. As a control, KK5101 (Trk alpha inhibitor) and HS829 (IKK beta inhibitor) were also treated at a concentration of 10 μM for 9 h. Prototypical necroptosis stimuli (TNF + zVAD + either cycloheximide or SMAC mimetic; hereafter referred to as TCZ or TSZ) were applied for 6 h. […] HT-29 cells were treated with 4 tested kinase inhibitors for 24 h, and cell viability was analyzed by MTT assay or phase-contrast microscopy. […] HT-29 cells were pretreated with necrostatin-1 (Nec-1, 40 μM), dabrafenib (DAB, 10 μM) or necrosulfonamide (NSA, 1 μM) for 2 h and then treated with TSZ for 6 h. […] HT-29 cells were pretreated with four tested kinase inhibitors for 2 h and then treated with TSZ for 6 h. Cell lysates were analyzed by immunoblotting. f HT-29 cells were pretreated with Nec-1 (40 μM), DAB (5 μM) or HS-1371 (5 μM) for 2 h and then treated with TSZ for 4 h. Cell lysates were immunoprecipitated with anti-RIP3 antibody. Immunoprecipitates and total lysates were analyzed by Western blotting
TNFα Smac mimetic and the caspase inhibitor zVAD (hereafter referred to as TSZ) is a classical combination that is used to induce RIP3-mediated necroptotic cell death[10],[32]. We first verified that three established pharmacological inhibitors of necroptosis, necrostatin-1 (Nec-1), necrosulfonamide (NSA), and dabrafenib (DAB) could block TNF-induced necroptosis (Fig. 2d). Of these inhibitors, Nec-1 inhibits RIP1 kinase activity[33],[34], DAB inhibits RIP3 kinase activity, and NSA inhibits MLKL functions downstream of RIP3 phosphorylation. […] Next, we tested whether these four inhibitors would inhibit TNF-induced necroptosis signaling by blocking RIP3 kinase activity. […] The effect of HS-1371 on RIP3 kinase activity was compared with another RIP3 inhibitor, GSK’872[16].

[1] = HT-29, 5 μM, pretreated 1 h or applied 1 or 2 h after induction
[2] = HT-29, post-treatment until approximately 5 h after TSZ

## Cc1ccc(Oc2ccnc3cc(-c4cnn(C5CCNCC5)c4)ccc23)cc1 [HS-1371, 7-(1-(Piperidin-4-yl)-1H-pyrazol-4-yl)-4-(p-tolyloxy)quinoline]
HT-29 cells; [1]
  TNF-induced cell death, pre-treatment and post-treatment: completely inhibited
HT-29 cells; HT-29, indicated concentrations, TSZ 24 h
  viability in response to TSZ-mediated necroptosis, dose-dependent: effectively restored
HT-29 cells; [2]
  cellular cytotoxicity, post-treatment after TSZ: significantly reduced
HT-29 cells; HT-29, pretreated 2 h, TSZ 24 h
  rescue from TSZ-induced cell death: rescued
RIP3; [1]
  RIP3 phosphorylation, pre-treatment and post-treatment: completely inhibited
RIP3; [2]
  MLKL phosphorylation, post-treatment after TSZ: partially blocked
RIP3; HT-29, pretreated 1 h or applied 1 or 2 h after induction, low concentrations
  RIP3 phosphorylation, pre-treatment and post-treatment, low concentrations: partial inhibitory effect
RIP3; HT-29, pretreated 2 h, TSZ 6 h
  effect on TNF-induced necroptosis signaling (phosphorylation of RIP3 and MLKL): complete inhibitory effect
